Values quoted from earlier work in patent US11564958B2, “Compositions and methods of treatment of Ehlers-Danlos syndromes” (RESOLYS BIO, INC., priority 2017, dated 2023).

System: rheumatoid arthritis
Conditions: reported in U.S. Pat. No. 4,704,273

## NCCc1c[nH]cn1 [histamine, 4-(2-aminoethyl)-imidazole]
  usefulness in alleviating symptoms of rheumatoid arthritis: not be useful
